Read-outs that look alike come from different tables or passages of the source.
Tests used:
[1] = target: PDE4B (aa 152-484, Uniprot ID Q07343) (Homo sapiens (Human), UniProt Q07343); test: PDE4 SPA assay (scintillation proximity assay); assay type: biochemical; conditions: read-out: PDE4B2 IC50
In short: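 PDE4B (aa 152-484, ~81.6 pM) preincubated ~10 min with compound, then 1 μM ³H/unlabeled cAMP added in Tris pH 7.5, 1.3 mM MgCl2, 0.004% Brij 35, ~2% DMSO; 30 min at RT. Product captured on SPA beads and counted; IC50 by four-parameter logistic fit.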

[2] = system: IL-4; test: Cytokine assay: IL-4 release from PHA-L stimulated human PBMCs; assay type: cell-based; conditions: read-out: IL4 IC50
In short: (§1)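 Thawed cryopreserved human PBMCs (~250,000 cells/well) in RPMI 1640 with 10% heat-inactivated FBS were treated with compound for ~10 min at room temperature, then stimulated with 3.5 μg/mL PHA-L (final) for 48 h at 37° C. Supernatant cytokine was measured by HTRF, and IC50 was derived by four-parameter logistic fit.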

[3] = system: IL-13; test: Cytokine assay: IL-13 release from PHA-L stimulated human PBMCs; assay type: cell-based; conditions: read-out: IL13 IC50
In short: as §1

[4] = system: IFNγ; test: Cytokine assay: IFNγ release from PHA-L stimulated human PBMCs; assay type: cell-based
In short: as §1

Chain of PDE4B (aa 152-484, Uniprot ID Q07343) (Q07343 324-656): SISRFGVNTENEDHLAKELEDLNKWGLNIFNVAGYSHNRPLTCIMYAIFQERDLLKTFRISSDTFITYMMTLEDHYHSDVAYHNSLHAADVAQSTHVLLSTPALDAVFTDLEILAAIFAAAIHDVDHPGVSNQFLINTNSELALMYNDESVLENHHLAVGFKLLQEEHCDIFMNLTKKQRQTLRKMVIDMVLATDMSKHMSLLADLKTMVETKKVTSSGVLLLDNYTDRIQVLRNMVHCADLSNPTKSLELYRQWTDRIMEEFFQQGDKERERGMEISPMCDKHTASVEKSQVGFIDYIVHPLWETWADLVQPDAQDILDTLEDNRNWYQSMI

CCCOc1cc(-c2nc(OC)cc(C3COB(O)C3)n2)ccc1OC (single isomer, unassigned; enantiomer 2) [Example 225, (−) 4-(6-methoxy-2-(4-methoxy-3-propoxphenyl)pyrimidin-4-yl)-1,2-oxaborolan-2-ol, enantiomer 2]
IC50 [1]: 3.79 nM | IC50 ([2]; Homo sapiens, PBMC): 21.2 nM | IC50 ([3]; Homo sapiens, PBMC): 2380 nM | IC50 ([4]; Homo sapiens, PBMC): 4.36 nM

COc1ccc(-c2cncc(C3COB(O)C3)c2)cc1OC1CC1 (single isomer, unassigned; enantiomer 1) [Example 193, 4-(5-(3-cyclopropoxy-4-methoxyphenyl)pyridin-3-yl)-1,2-oxaborolan-2-ol, enantiomer 1]
IC50 [1]: 0.63 nM | IC50 [2]: 73.1 nM | IC50 [3]: 1530 nM | IC50 [4]: 2.16 nM

CCOc1c(OC)ccc(-c2cncc(C3COB(O)C3)c2)c1C(F)(F)F (single isomer, unassigned) [Example 95, 4-(5-(3-ethoxy-4-methoxy-2-(trifluoromethyl)phenyl)pyridin-3-yl)-1,2-oxaborolan-2-ol]
IC50 [1]: 4.87 nM | IC50 ([2]; Homo sapiens, PBMC): 7.36 nM | IC50 ([3]; Homo sapiens, PBMC): 461 nM | IC50 ([4]; Homo sapiens, PBMC): 2.87 nM

COc1ccc(-c2cccc(C3COB(O)C3)c2)cc1OC(C)C (stereo not drawn) [Example 75, 4-(3′-isopropoxy-4′-methoxy-[1,1′-biphenyl]-3-yl)-1,2-oxaborolan-2-ol]
IC50 [1]: 4.52 nM | IC50 ([2]; Homo sapiens, PBMC): 125 nM | IC50 ([3]; Homo sapiens, PBMC): 395 nM | IC50 ([4]; Homo sapiens, PBMC): 5.98 nM

CCOc1cc(-c2nc(C3COB(O)C3)cs2)c(F)cc1OC (single isomer, unassigned) [Example 92, 4-(2-(5-ethoxy-2-fluoro-4-methoxyphenyl)thiazol-4-yl)-1,2-oxaborolan-2-ol]
IC50 [1]: 1.79 nM | IC50 ([2]; Homo sapiens, PBMC): 3.36 nM | IC50 ([3]; Homo sapiens, PBMC): 947 nM | IC50 ([4]; Homo sapiens, PBMC): 2.7 nM

CCOc1cc(-c2cncc(C3COB(O)C3)c2C)ccc1OC (stereo not drawn) [Example 53, 4-(5-(3-ethoxy-4-methoxyphenyl)-4-methylpyridin-3-yl)-1,2-oxaborolan-2-ol]
IC50 [1]: 1.41 nM | IC50 ([2]; Homo sapiens, PBMC): 4.87 nM | IC50 ([3]; Homo sapiens, PBMC): 115 nM | IC50 ([4]; Homo sapiens, PBMC): 0.6 nM

CCCOc1cc(-c2nc(C3COB(O)C3)cc(C(F)(F)F)n2)ccc1OC (stereo not drawn) [Example 124, 4-(2-(4-methoxy-3-propoxyphenyl)-6-(trifluoromethyl)pyrimidin-4-yl)-1,2-oxaborolan-2-ol]
IC50 [1]: 2.2 nM | IC50 [2]: 9.48 nM | IC50 [3]: 1660 nM | IC50 [4]: 10.1 nM

CCOc1c(OC)ccc(-c2cccc(C3COB(O)C3)n2)c1C#N (stereo not drawn) [Example 151, 2-ethoxy-6-(6-(2-hydroxy-1,2-oxaborolan-4-yl)pyridin-2-yl)-3-methoxybenzonitrile]
IC50 [1]: 5.98 nM | IC50 ([2]; Homo sapiens, PBMC): 39.1 nM | IC50 ([3]; Homo sapiens, PBMC): 813 nM | IC50 ([4]; Homo sapiens, PBMC): 3.48 nM

CCCOc1c(OC)ccc(-c2cncc(C3COB(O)C3)n2)c1F (stereo not drawn) [Example 215, 4-(6-(2-fluoro-4-methoxy-3-propoxyphenyl)pyrazin-2-yl)-1,2-oxaborolan-2-ol]
IC50 [1]: 2.58 nM | IC50 ([2]; Homo sapiens, PBMC): 62.7 nM | IC50 ([3]; Homo sapiens, PBMC): 2050 nM | IC50 ([4]; Homo sapiens, PBMC): 2.18 nM

CCCOc1cccc(-c2cncc(C3COB(O)C3)c2)c1 (stereo not drawn) [Example 145, 4-(5-(3-propoxphenyl)pyridin-3-yl)-1,2-oxaborolan-2-ol]
IC50 [1]: 6.77 nM | IC50 ([2]; Homo sapiens, PBMC): 103 nM | IC50 ([3]; Homo sapiens, PBMC): 2240 nM | IC50 ([4]; Homo sapiens, PBMC): 52.1 nM

CCCOc1c(OC)ccc(-c2cccc(C3COB(O)C3)n2)c1C#N (stereo not drawn) [Example 86, 6-(6-(2-hydroxy-1,2-oxaborolan-4-yl)pyridin-2-yl)-3-methoxy-2-propoxybenzonitrile]
IC50 [1]: 7.26 nM | IC50 ([2]; Homo sapiens, PBMC): 105 nM | IC50 ([3]; Homo sapiens, PBMC): 1330 nM | IC50 ([4]; Homo sapiens, PBMC): 5 nM

CCCOc1cc(-c2cncc(C3COB(O)C3)n2)ccc1OC (stereo not drawn) [Example 115, 4-(6-(4-methoxy-3-propoxyphenyl)pyrazin-2-yl)-1,2-oxaborolan-2-ol]
IC50 [1]: 1.1 nM | IC50 ([2]; Homo sapiens, PBMC): 38.4 nM | IC50 ([3]; Homo sapiens, PBMC): 509 nM | IC50 ([4]; Homo sapiens, PBMC): 1.68 nM

COc1cc(-c2ccc(OC)c(OC)c2)cc(C2COB(O)C2)c1 (stereo not drawn) [Example 157, 4-(3′,4′,5-trimethoxy-[1,1′-biphenyl]-3-yl)-1,2-oxaborolan-2-ol]
IC50 [1]: 2.96 nM | IC50 ([2]; Homo sapiens, PBMC): 190 nM | IC50 ([3]; Homo sapiens, PBMC): 906 nM | IC50 ([4]; Homo sapiens, PBMC): 5.62 nM

CCCOc1cc(-c2nc(C3COB(O)C3)ns2)ccc1OC (stereo not drawn) [Example 147, 4-(5-(4-methoxy-3-propoxyphenyl)-1,2,4-thiadiazol-3-yl)-1,2-oxaborolan-2-ol]
IC50 [1]: 0.44 nM | IC50 ([2]; Homo sapiens, PBMC): 2.69 nM | IC50 ([3]; Homo sapiens, PBMC): 1260 nM | IC50 ([4]; Homo sapiens, PBMC): 1.57 nM

COc1ccc(-c2cccc(C3COB(O)C3)n2)c(F)c1OC (stereo not drawn) [Example 162, 4-(6-(2-fluoro-3,4-dimethoxyphenyl)pyridin-2-yl)-1,2-oxaborolan-2-ol]
IC50 [1]: 14.5 nM | IC50 ([2]; Homo sapiens, PBMC): 56.3 nM | IC50 ([3]; Homo sapiens, PBMC): 975 nM | IC50 ([4]; Homo sapiens, PBMC): 8.29 nM

CCCOc1cc(-c2cncc(C3COB(O)C3)c2)ncc1OC (single isomer, unassigned; enantiomer 1) [Example 179, 4-(5-methoxy-4-propoxy-[2,3′-bipyridin]-5-yl)-1,2-oxaborolan-2-ol, enantiomer 1]
IC50 [1]: 0.98 nM | IC50 ([2]; Homo sapiens, PBMC): 0.72 nM | IC50 ([3]; Homo sapiens, PBMC): 2730 nM | IC50 ([4]; Homo sapiens, PBMC): 0.74 nM

COc1cc(-c2ccc(OC)c(OC3CCCC3)c2)nc(C2COB(O)C2)n1 (stereo not drawn) [Example 175, 4-(4-(3-(cyclopentyloxy)-4-methoxyphenyl)-6-methoxypyrimidin-2-yl)-1,2-oxaborolan-2-ol]
IC50 [1]: 5.03 nM | IC50 ([2]; Homo sapiens, PBMC): 14.3 nM | IC50 ([3]; Homo sapiens, PBMC): 2310 nM | IC50 ([4]; Homo sapiens, PBMC): 4.35 nM

CCOc1cc(-c2cncc(C3COB(O)C3)c2)c(C)cc1OC (stereo not drawn) [Example 69, 4-(5-(5-ethoxy-4-methoxy-2-methylphenyl)pyridin-3-yl)-1,2-oxaborolan-2-ol]
IC50 [1]: 4.39 nM | IC50 ([2]; Homo sapiens, PBMC): 6.51 nM | IC50 ([3]; Homo sapiens, PBMC): 373 nM | IC50 ([4]; Homo sapiens, PBMC): 3.84 nM

COc1cc(-c2cccc(C3COB(O)C3)c2)cc(C#N)c1OC (stereo not drawn) [Example 117, 3′-(2-hydroxy-1,2-oxaborolan-4-yl)-4,5-dimethoxy-[1,1′-biphenyl]-3-carbonitrile]
IC50 [1]: 1.8 nM | IC50 ([2]; Homo sapiens, PBMC): 64.2 nM | IC50 ([3]; Homo sapiens, PBMC): 520 nM | IC50 ([4]; Homo sapiens, PBMC): 10 nM

CCCOc1cc(-c2ccc(F)c(C3COB(O)C3)n2)ccc1OC (single isomer, unassigned; enantiomer 1) [Example 230, 4-(3-fluoro-6-(4-methoxy-3-propoxyphenyl)pyridin-2-yl)-1,2-oxaborolan-2-ol, enantiomer 1]
IC50 [1]: 17.1 nM | IC50 ([2]; Homo sapiens, PBMC): 141 nM | IC50 ([3]; Homo sapiens, PBMC): 2780 nM | IC50 ([4]; Homo sapiens, PBMC): 26.5 nM

CCOc1cc(-c2cccc(C3COB(O)C3)c2)ccc1SC (stereo not drawn) [Example 172, 4-(3′-ethoxy-4′-(methylthio)-[1,1′-biphenyl]-3-yl)-1,2-oxaborolan-2-ol]
IC50 [1]: 1.76 nM | IC50 ([2]; Homo sapiens, PBMC): 269 nM | IC50 ([3]; Homo sapiens, PBMC): 1110 nM | IC50 ([4]; Homo sapiens, PBMC): 27.5 nM

CCOc1cc(-c2nc(OC)cc(C3COB(O)C3)n2)ccc1OC (single isomer, unassigned; enantiomer 2) [Example 186, (−) 4-(2-(3-ethoxy-4-methoxyphenyl)-6-methoxypyrimidin-4-yl)-1,2-oxaborolan-2-ol, enantiomer 2]
IC50 [1]: 4.43 nM | IC50 ([2]; Homo sapiens, PBMC): 31.4 nM | IC50 ([3]; Homo sapiens, PBMC): 1400 nM | IC50 ([4]; Homo sapiens, PBMC): 5.13 nM

CCCOc1cc(-c2cccc(C3COB(O)C3)c2)ccc1OC (stereo not drawn) [Example 88, 4-(4′-methoxy-3′-propoxy-[1,1′-biphenyl]-3-yl)-1,2-oxaborolan-2-ol]
IC50 [1]: 2.64 nM | IC50 ([2]; Homo sapiens, PBMC): 63.7 nM | IC50 ([3]; Homo sapiens, PBMC): 609 nM | IC50 ([4]; Homo sapiens, PBMC): 6.14 nM

CCOc1cc(-c2nc(C3COB(O)C3)cs2)ccc1OC (stereo not drawn) [Example 58, 4-(2-(3-ethoxy-4-methoxyphenyl)thiazol-4-yl)-1,2-oxaborolan-2-ol]
IC50 [1]: 0.72 nM | IC50 ([2]; Homo sapiens, PBMC): 163 nM | IC50 ([3]; Homo sapiens, PBMC): 103 nM | IC50 ([4]; Homo sapiens, PBMC): 1.81 nM

CCOc1cc(-c2cncc(C3COB(O)C3)c2)cc(Cl)c1OC (single isomer, unassigned; enantiomer 2) [Example 173, 4-(5-(3-chloro-5-ethoxy-4-methoxyphenyl)pyridin-3-yl)-1,2-oxaborolan-2-ol, enantiomer 2]
IC50 [1]: 10 nM | IC50 [2]: 77.1 nM | IC50 [3]: 1130 nM | IC50 [4]: 30.2 nM

CCCOc1cc(-c2cc(C3COB(O)C3)cnc2C)cnc1OC (single isomer, unassigned; enantiomer 1) [Example 219, (−) 4-(6′-methoxy-2-methyl-5′-propoxy-[3,3′-bipyridin]-5-yl)-1,2-oxaborolan-2-ol, enantiomer 1]
IC50 [1]: 0.82 nM | IC50 ([2]; Homo sapiens, PBMC): 4.1 nM | IC50 ([3]; Homo sapiens, PBMC): 2130 nM | IC50 ([4]; Homo sapiens, PBMC): 1.67 nM

COc1ccc(-c2nc(C3COB(O)C3)cs2)cc1OC (stereo not drawn) [Example 159, 4-(2-(3,4-dimethoxyphenyl)thiazol-4-yl)-1,2-oxaborolan-2-ol]
IC50 [1]: 15.1 nM | IC50 ([2]; Homo sapiens, PBMC): 468 nM | IC50 ([3]; Homo sapiens, PBMC): 931 nM | IC50 ([4]; Homo sapiens, PBMC): 25.1 nM

CCOc1cc(-c2cc(C(F)(F)F)cc(C3COB(O)C3)n2)ccc1OC (stereo not drawn) [Example 220, 4-(6-(3-ethoxy-4-methoxyphenyl)-4-(trifluoromethyl)pyridin-2-yl)-1,2-oxaborolan-2-ol]
IC50 [1]: 3.29 nM | IC50 ([2]; Homo sapiens, PBMC): 540 nM | IC50 ([3]; Homo sapiens, PBMC): 2130 nM | IC50 ([4]; Homo sapiens, PBMC): 2.37 nM

COc1ccc(-c2cncc(C3COB(O)C3)c2)cc1OC (single isomer, unassigned) [Example 1, 4-(5-(3,4-dimethoxyphenyl)pyridin-3-yl)-1,2-oxaborolan-2-ol]
IC50 [1]: 3.16 nM | IC50 [2]: 14.3 nM | IC50 [3]: 284 nM | IC50 [4]: 2.98 nM

CCCOc1nc(-c2cccc(C3=CB(O)OC3)c2)ccc1OC [Example 155, 4-(3-(5-methoxy-6-propoxypyridin-2-yl)phenyl)-1,2-oxaborol-2(5H)-ol]
IC50 [1]: 1.81 nM | IC50 ([2]; Homo sapiens, PBMC): 293 nM | IC50 ([3]; Homo sapiens, PBMC): 2600 nM | IC50 ([4]; Homo sapiens, PBMC): 5.64 nM

Source: patent publication US11559538B2, “Substituted 1,2-oxaborolan-2-ols as PDE4 inhibitors” (Pfizer Inc., priority 2018, dated 2023)
